pIC50: −log10 of the molar value.
Columns and labels:
[1] = system: primary rat oligodendrocyte progenitor cells; assay: Oligodendrocyte toxicity assay, protection of oligodendrocyte progenitors (OLP) against SIN-1, LDH release; assay type: cell-based; details: 10 nM compound, 1 hour pretreatment, SIN-1 toxin, LDH after 24 hours
Description: (§1) Oligodendrocyte Toxicity Assay
(§2) Primary rat oligodendrocyte progenitor cells were obtained from the cerebra of 2-3 day old postnatal rats (Sprague Dawley). The meninges were removed and tissue was mechanically dissociated. Cells were plated on T75 flasks and fed with DMEM +10% FBS.
(§3) Enriched OLPs were collected by mechanical separation from the astrocytic monolayer and were expanded in serum free media (SFM) supplemented with the mitogens, PDGF-AA (10 ng/mI) and FGF-2 (10 ng/mI).
(§4) Cells were plated in 96-well plates, 10,000 per well. Medium was changed to fresh medium and cells were pretreated with compounds for 1 hour. Toxins were added to give the following final concentrations: Sin-10 mM, Camptothecin 1 OM
(§5) After 24 hours, medium was removed and assayed for LDH activity using the Promega cytotox 96 kit (catalog# G1780). Results were calculated as percent protection against toxin-induced toxicity.
(§6) These compounds have been assessed for their efficacy in protection against cell death produced by toxic agents such as SIN-1 (3-morpholino-sydnonimine, producing peroxynitrite) and camptothecin. The target cells assessed in vitro are primary cultures of rodent oligodendrocyte progenitors and their mature counterparts.

[2] = target: T1, ERα (Homo sapiens, UniProt P03372); assay: Fluorescence Polarization Competition Assay, ERα binding (Panvera kit); details: first ER column
T1 construct: purchased Panvera P2698
T1 sequence (P03372 1-595): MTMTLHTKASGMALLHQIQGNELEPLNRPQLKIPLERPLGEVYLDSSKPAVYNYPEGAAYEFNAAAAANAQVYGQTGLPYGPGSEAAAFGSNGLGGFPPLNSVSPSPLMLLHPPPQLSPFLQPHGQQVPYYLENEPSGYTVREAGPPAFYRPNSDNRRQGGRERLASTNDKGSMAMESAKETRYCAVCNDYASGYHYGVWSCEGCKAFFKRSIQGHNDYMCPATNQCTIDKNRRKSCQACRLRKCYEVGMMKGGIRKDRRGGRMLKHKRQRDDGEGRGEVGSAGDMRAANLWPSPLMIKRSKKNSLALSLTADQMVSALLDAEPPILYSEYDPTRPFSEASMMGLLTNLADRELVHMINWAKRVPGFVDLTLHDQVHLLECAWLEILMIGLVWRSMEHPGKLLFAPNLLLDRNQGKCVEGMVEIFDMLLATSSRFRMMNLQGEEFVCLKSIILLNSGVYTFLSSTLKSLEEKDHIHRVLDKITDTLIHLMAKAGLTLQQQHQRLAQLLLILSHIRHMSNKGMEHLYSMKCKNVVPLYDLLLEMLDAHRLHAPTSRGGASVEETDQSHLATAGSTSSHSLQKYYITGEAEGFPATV
Description: (§7) A number of compounds were tested for ERα and ERβ binding using Panvera's Fluorescence Polarization Competition Assay Kits (cat. nos. P2698 and P2700). Briefly, ERα or ERβ were thawed on ice from −80° C. An estrogen receptor and fluorescent ligand (Fluormone™) complex was formed at a 15/1 molar ratio for ERα and at a 10/1 molar ratio for ER≈ (2X complex). Serial dilutions of the test compounds were made in assay buffer and the assay was initiated by adding 50 ul of the 2X receptor-ligand complex to 50 ul of compound solution in black 96-well plates. Zero percent competition (theoretical maximum polarization) was measured in wells containing 50 ul of buffer and 50 ul of the 2X receptor-ligand complex. The plates were incubated after gentle shaking in the dark at room temperature. Polarization values (mP) were read no longer than 7 hours after the reaction was started with a FARCyte Fluorescent reader (Amersham) at excitation and emission wavelengths of 485 nm and 535 nm, respectively. Data was analyzed using non-linear regression and IC50 values determined using GraphPad Prism. Estradiol was used as the reference compound.

[3] = system: mature oligodendrocytes; assay: Oligodendrocyte toxicity assay, protection of mature oligodendrocytes (OL) against SIN-1, LDH release; assay type: cell-based, rat; details: 10 nM compound, 1 hour pretreatment, SIN-1 toxin, LDH after 24 hours
Description: as §1, §2, §3
To generate mature oligodendrocytes, progenitor cells were switched to SFM supplemented with IGF-1 (10 ng/mi) 24 hours after plating and cells were grown under these conditions for 7 days prior to experimental assays.
as §4, §5, §6

[4] = target: T2, ERβ (Homo sapiens, UniProt Q92731); assay: Fluorescence Polarization Competition Assay, ERβ binding (Panvera kit); details: for pIC50: ER, fluorescence polarization competition; for ER[…] selectivity Fold Diff: ratio of the two ER binding IC50 values
T2 construct: purchased Panvera P2700
T2 sequence (Q92731 whole entry): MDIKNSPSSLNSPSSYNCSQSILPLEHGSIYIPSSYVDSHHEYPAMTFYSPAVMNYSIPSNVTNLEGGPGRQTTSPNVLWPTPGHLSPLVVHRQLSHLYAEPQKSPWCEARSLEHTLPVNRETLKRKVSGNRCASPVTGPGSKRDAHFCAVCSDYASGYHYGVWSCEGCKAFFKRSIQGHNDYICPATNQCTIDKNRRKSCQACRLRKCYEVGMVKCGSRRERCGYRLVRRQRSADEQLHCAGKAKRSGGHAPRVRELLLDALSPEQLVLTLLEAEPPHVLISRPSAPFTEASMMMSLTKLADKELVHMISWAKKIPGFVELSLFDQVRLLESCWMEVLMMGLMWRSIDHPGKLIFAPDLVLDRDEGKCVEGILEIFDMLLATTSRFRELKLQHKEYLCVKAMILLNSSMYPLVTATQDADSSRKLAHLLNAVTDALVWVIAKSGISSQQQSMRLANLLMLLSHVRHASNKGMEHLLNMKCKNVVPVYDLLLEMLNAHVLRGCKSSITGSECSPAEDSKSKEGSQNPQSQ
Description: as §7

Structure (SMILES)	pIC50 [2]	pIC50 [4]	ER[…] selectivity Fold Diff [4] [Fold]	% Protection (SIN-1*) OLP 10 nM [1] [%]	% Protection (SIN-1*) OL 10 nM [3] [%]
OCc1cc(Br)c(-c2ccc(O)cc2)c(-n2cccc2)c1 [2-bromo-4′-hydroxy-6-(1H-pyrrol-1-yl)-1,1′-biphenyl]-4-methanol]	6.39	7.82	27	10	15
OCc1cc(Br)c(-c2ccc(O)cc2)c(-c2ccoc2)c1 [2-bromo-6-(furan-3-yl)-4′-hydroxy-[1,1′-biphenyl]-4-methanol]	6.80	8.22	25	37	16
CN(C)c1cc(CO)cc(Br)c1-c1ccc(O)cc1 [2-bromo-6-dimethylamino-4′-hydroxy-[1,1′-biphenyl]-4-methanol]	6.38	7.43	11	45	12

The next compounds have a higher pIC50 [2] than those just listed; values first:

pIC50 [2]	pIC50 [4]	ER[…] selectivity Fold Diff [4] [Fold]	Structure (SMILES)	% Protection (SIN-1*) OLP 10 nM [1] [%]	% Protection (SIN-1*) OL 10 nM [3] [%]
6.90	8.10	16	O=[N+]([O-])c1cc(CO)cc(Br)c1-c1ccc(O)cc1 [2-bromo-4′-hydroxy-6-nitro-[1,1′-biphenyl]-4-methanol]	16	12
7.03	7.74	5	OCc1cc(Cl)c(-c2ccc(O)cc2)c(Cl)c1 [2,6-dichloro-4′-hydroxy-[1,1′-biphenyl]-4-methanol]	36	6
7.22	8.05	7	OCc1cc(Br)c(-c2ccc(O)cc2)c(Br)c1 [2,6-dibromo-4′-hydroxy-[1,1′-biphenyl]-4-methanol]	51	11

Source: patent publication US20070249706A1, “USE OF CERTAIN BIPHENYL COMPOUNDS FOR PROTECTION OF NEURONS AND OLIGODENDROCYTES IN THE TREATMENT OF MULTIPLE SCLEROSIS (MS)” (AVENTIS PHARMACEUTICALS INC., priority 2004, published 2007)
